{
  "source": "BindingDB's records for doi:10.1016/j.bmcl.2009.09.081",
  "about": "(Lexicon Pharmaceuticals, 2009)",
  "data": [
    {"assay": "Inhibition of deoxycytidine kinase-mediated arabinoside C-induced cytotoxicity", "units": {"EC50": "nM"}, "values": [
      {"smiles": "NC(=O)c1ccc(-c2cccc(S(=O)(=O)N[C@H]3CC[C@H](n4cc(F)c(N)nc4=O)C3)c2)cc1", "note": "[3'-(N-((1S,3S)-3-(4-amino-5-fluoro-2-oxopyrimidin-1(2H)-yl)cyclopentyl)sulfamoyl)biphenyl-4-carboxamide]", "EC50": 5900},
      {"smiles": "Nc1nc(=O)n([C@H]2CC[C@H](NS(=O)(=O)c3cccc(-c4ccc(Cl)cc4Cl)c3)C2)cc1F", "note": "[N-((1S,3S)-3-(4-amino-5-fluoro-2-oxopyrimidin-1(2H)-yl)cyclopentyl)-2',4'-dichlorobiphenyl-3-sulfonamide]", "EC50": 530},
      {"smiles": "Nc1nc(=O)n([C@H]2CC[C@H](NS(=O)(=O)c3cccc(-c4ccccc4Cl)c3)C2)cc1F", "note": "[N-((1S,3S)-3-(4-amino-5-fluoro-2-oxopyrimidin-1(2H)-yl)cyclopentyl)-2'-chlorobiphenyl-3-sulfonamide]", "EC50": 430},
      {"smiles": "Nc1nc(=O)n([C@H]2CC[C@H](NC(=O)c3cccc(-c4cccc(Cl)c4)c3)C2)cc1F", "note": "[N-((1S,3S)-3-(4-amino-5-fluoro-2-oxopyrimidin-1(2H)-yl)cyclopentyl)-3'-chlorobiphenyl-3-carboxamide]", "EC50": 180},
      {"smiles": "Nc1nc(=O)n([C@H]2CC[C@H](NS(=O)(=O)c3cccc(-c4cccc(Cl)c4)c3)C2)cc1F", "note": "[N-((1S,3S)-3-(4-amino-5-fluoro-2-oxopyrimidin-1(2H)-yl)cyclopentyl)-3'-chlorobiphenyl-3-sulfonamide]", "EC50": 360},
      {"smiles": "Nc1nc(=O)n([C@H]2CC[C@H](NS(=O)(=O)c3cccc(Br)c3)C2)cc1F", "note": "[N-((1S,3S)-3-(4-amino-5-fluoro-2-oxopyrimidin-1(2H)-yl)cyclopentyl)-3-bromobenzenesulfonamide]", "EC50": 2800},
      {"smiles": "CS(=O)(=O)c1ccc(-c2cccc(S(=O)(=O)N[C@H]3CC[C@H](n4cc(F)c(N)nc4=O)C3)c2)cc1", "note": "[N-((1S,3S)-3-(4-amino-5-fluoro-2-oxopyrimidin-1(2H)-yl)cyclopentyl)-4'-(methylsulfonyl)biphenyl-3-sulfonamide]", "EC50": 1800},
      {"smiles": "Cc1cc(Cl)ccc1-c1cccc(C(=O)N[C@H]2CC[C@H](n3cc(F)c(N)nc3=O)C2)c1", "note": "[N-((1S,3S)-3-(4-amino-5-fluoro-2-oxopyrimidin-1(2H)-yl)cyclopentyl)-4'-chloro-2'-methylbiphenyl-3-carboxamide]", "EC50": 170},
      {"smiles": "Cc1cc(Cl)ccc1-c1cccc(S(=O)(=O)N[C@H]2CC[C@H](n3cc(F)c(N)nc3=O)C2)c1", "note": "[N-((1S,3S)-3-(4-amino-5-fluoro-2-oxopyrimidin-1(2H)-yl)cyclopentyl)-4'-chloro-2'-methylbiphenyl-3-sulfonamide]", "EC50": 290},
      {"smiles": "Nc1nc(=O)n([C@H]2CC[C@H](NC(=O)c3cccc(-c4ccc(Cl)cc4)c3)C2)cc1F", "note": "[N-((1S,3S)-3-(4-amino-5-fluoro-2-oxopyrimidin-1(2H)-yl)cyclopentyl)-4'-chlorobiphenyl-3-carboxamide]", "EC50": 270},
      {"smiles": "Nc1nc(=O)n([C@H]2CC[C@H](NS(=O)(=O)c3cccc(-c4ccc(Cl)cc4)c3)C2)cc1F", "note": "[N-((1S,3S)-3-(4-amino-5-fluoro-2-oxopyrimidin-1(2H)-yl)cyclopentyl)-4'-chlorobiphenyl-3-sulfonamide]", "EC50": 240},
      {"smiles": "N#Cc1ccc(-c2cccc(S(=O)(=O)N[C@H]3CC[C@H](n4cc(F)c(N)nc4=O)C3)c2)cc1", "note": "[N-((1S,3S)-3-(4-amino-5-fluoro-2-oxopyrimidin-1(2H)-yl)cyclopentyl)-4'-cyanobiphenyl-3-sulfonamide]", "EC50": 390},
      {"smiles": "COc1ccc(-c2cccc(C(=O)N[C@H]3CC[C@H](n4cc(F)c(N)nc4=O)C3)c2)cc1", "note": "[N-((1S,3S)-3-(4-amino-5-fluoro-2-oxopyrimidin-1(2H)-yl)cyclopentyl)-4'-methoxybiphenyl-3-carboxamide]", "EC50": 100},
      {"smiles": "COc1ccc(-c2cccc(S(=O)(=O)N[C@H]3CC[C@H](n4cc(F)c(N)nc4=O)C3)c2)cc1", "note": "[N-((1S,3S)-3-(4-amino-5-fluoro-2-oxopyrimidin-1(2H)-yl)cyclopentyl)-4'-methoxybiphenyl-3-sulfonamide]", "EC50": 300},
      {"smiles": "Cc1ccc(-c2cccc(S(=O)(=O)N[C@H]3CC[C@H](n4cc(F)c(N)nc4=O)C3)c2)cc1", "note": "[N-((1S,3S)-3-(4-amino-5-fluoro-2-oxopyrimidin-1(2H)-yl)cyclopentyl)-4'-methylbiphenyl-3-sulfonamide]", "EC50": 500},
      {"smiles": "Nc1nc(=O)n([C@H]2CC[C@H](NS(=O)(=O)c3ccc(Br)cc3)C2)cc1F", "note": "[N-((1S,3S)-3-(4-amino-5-fluoro-2-oxopyrimidin-1(2H)-yl)cyclopentyl)-4-bromobenzenesulfonamide]", "EC50": 11000},
      {"smiles": "Nc1nc(=O)n([C@H]2CC[C@H](NS(=O)(=O)c3ccc([N+](=O)[O-])cc3)C2)cc1F", "note": "[N-((1S,3S)-3-(4-amino-5-fluoro-2-oxopyrimidin-1(2H)-yl)cyclopentyl)-4-nitrobenzenesulfonamide]", "EC50": 16000},
      {"smiles": "Nc1nc(=O)n([C@H]2CC[C@H](NS(=O)(=O)c3ccccc3)C2)cc1F", "note": "[N-((1S,3S)-3-(4-amino-5-fluoro-2-oxopyrimidin-1(2H)-yl)cyclopentyl)benzenesulfonamide]", "EC50": 17000},
      {"smiles": "Nc1nc(=O)n([C@H]2CC[C@H](NC(=O)c3cccc(-c4ccccc4)c3)C2)cc1F", "note": "[N-((1S,3S)-3-(4-amino-5-fluoro-2-oxopyrimidin-1(2H)-yl)cyclopentyl)biphenyl-3-carboxamide]", "EC50": 910},
      {"smiles": "Nc1nc(=O)n([C@H]2CC[C@H](NS(=O)(=O)c3cccc(-c4ccccc4)c3)C2)cc1F", "note": "[N-((1S,3S)-3-(4-amino-5-fluoro-2-oxopyrimidin-1(2H)-yl)cyclopentyl)biphenyl-3-sulfonamide]", "EC50": 600},
      {"smiles": "Nc1nc(=O)n([C@H]2CC[C@H](NS(=O)(=O)c3ccc(-c4ccccc4)cc3)C2)cc1F", "note": "[N-((1S,3S)-3-(4-amino-5-fluoro-2-oxopyrimidin-1(2H)-yl)cyclopentyl)biphenyl-4-sulfonamide]", "EC50": 5500}
    ]}
  ]
}
